Calls of active or inactive are those of the source. No cut-off for these calls is given here. Residues, ends and D or L forms follow the SMILES beside them. *: point of attachment. X1 = CC(=O)OC[C@H]1O[C@@H](*)[C@H](OC(C)=O)[C@@H](OC(C)=O)[C@@H]1OC(C)=O; βGlc = OC[C@H]1O[C@@H](*)[C@H](O)[C@@H](O)[C@@H]1O
Tests used:
Mu-type opioid receptor [1] = biological target: Mu-type opioid receptor (Cavia porcellus, UniProt P97266); assay: Agonist activity at mu opioid receptor in guinea pig ileum; type: tissue-based
Mu-type opioid receptor (Cavia porcellus, UniProt P97266), sequence (P97266 whole entry): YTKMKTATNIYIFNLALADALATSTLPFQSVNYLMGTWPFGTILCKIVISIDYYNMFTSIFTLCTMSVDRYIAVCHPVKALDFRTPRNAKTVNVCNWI

Mu-type opioid receptor [2] = biological target: Mu-type opioid receptor (Rattus norvegicus, UniProt P33535); assay: Displacement of [3H]DAMGO from Wistar rat brain mu opioid receptor by liquid scintillation counting analysis
Mu-type opioid receptor (Rattus norvegicus, UniProt P33535), sequence (P33535 whole entry): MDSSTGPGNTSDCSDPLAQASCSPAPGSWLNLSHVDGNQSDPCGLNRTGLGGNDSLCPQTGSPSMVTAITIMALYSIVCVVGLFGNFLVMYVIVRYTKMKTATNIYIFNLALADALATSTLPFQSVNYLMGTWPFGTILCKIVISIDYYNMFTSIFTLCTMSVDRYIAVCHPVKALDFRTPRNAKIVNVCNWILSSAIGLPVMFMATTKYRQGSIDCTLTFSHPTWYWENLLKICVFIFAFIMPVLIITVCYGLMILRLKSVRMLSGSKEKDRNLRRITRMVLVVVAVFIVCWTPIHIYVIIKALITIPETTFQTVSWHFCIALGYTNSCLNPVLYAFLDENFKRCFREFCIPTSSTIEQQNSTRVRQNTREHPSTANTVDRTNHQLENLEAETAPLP

Mus musculus [3] = assay: Antinociceptive activity in mouse assessed as prolongation time to jump at 3 mg/kg, iv by hot plate test; type: functional, organism-based; set-up: dose 3 mg/kg
Mus musculus [4] = assay: Antinociceptive activity in mouse assessed as prolongation time to jump at 3 mg/kg, iv by hot plate test in presence of opioid receptor antagonist NALME; type: functional, organism-based; set-up: dose 3 mg/kg
Plasma [5] = assay: Drug metabolism in mouse plasma assessed as glucuronic metabolite formation at 3 mg/kg, iv after 10 mins by mass spectrometric analysis; type: ADME, organism-based; set-up: dose 3 mg/kg, route intravenous; settings: in vivo
Plasma [6] = assay: Drug metabolism in mouse plasma assessed as degycosylated metabolite formation at 3 mg/kg, iv after 10 mins by mass spectrometric analysis; type: ADME, organism-based; set-up: dose 3 mg/kg, route intravenous; settings: in vivo

Row | SMILES | IC50 (Mu-type opioid receptor [1]) [nM] | IC50 (Mu-type opioid receptor [2]) [nM] | Activity (Mus musculus [3]) | Activity (Mus musculus [4]) | Drug metabolism (Plasma [5]) | Drug metabolism (Plasma [6])
1 | CC(=O)OC[C@H]1O[C@@H](Oc2ccc(C[C@H](NC(=O)[C@@H]3CCCN3C(=O)[C@@H](N)Cc3ccc(O)cc3)C(=O)N[C@@H](Cc3ccccc3)C(N)=O)cc2)[C@H](OC(C)=O)[C@@H](OC(C)=O)[C@@H]1OC(C)=O (H-YPY(X1)F-NH2) | > 1000 | > 1000 |  |  |  | 
2 | NC(=O)[C@H](Cc1ccccc1)NC(=O)[C@H](Cc1ccccc1)NC(=O)[C@@H]1CCCN1C(=O)[C@@H](N)Cc1ccc(O)cc1 |  |  | inactive |  |  | 
3 | NC(=O)[C@H](Cc1ccccc1)NC(=O)[C@H](Cc1ccc(O[C@@H]2O[C@H](CO)[C@@H](O)[C@H](O)[C@H]2O)cc1)NC(=O)[C@@H]1CCCN1C(=O)[C@@H](N)Cc1ccc(O)cc1 (H-YPY(βGlc)F-NH2) | 16.1 | 73.2 | Active | Active | Active | Active

From ChEMBL document CHEMBL3091405, “Novel glycosylated endomorphin-2 analog produces potent centrally-mediated antinociception in mice after peripheral administration” (Bioorg Med Chem Lett, 2013)
